pIC50: −log10 of the molar value. “Also recorded” adds a separate entry of the source.
Assays:
[1] = Randomized, double-blind, placebo-controlled 12-week efficacy study (NPI, CGIC, ADAS-cog, MMSE, CANTAB, ADCS-ADL); type: in vivo, patients; details: 50 mg BID 2 weeks then 100 mg BID 10 weeks
Excerpt: A randomized, double-blind, placebo-controlled study is done to measure the efficacy of the (+) phenserine tartrate or formation as in Example 6 in given daily over twelve (12) weeks, in 60 patients diagnosed as having symptoms similar to those caused by Alzheimer's disease (PAD). In this study there was a total of 60 eligible patients with PAD whose primary language is English, and the patients constituted male and female patients between the ages of 50 and 85 years.
Forty patients will receive two weeks of PT and a 50 mg BID dose level, at which time their dose will be escalated to 100 mg BID, where it will remain for the final ten (10) weeks. Concurrently, twenty patients assigned to placebo medication receive matched placebo capsules for the entire 12 week duration of the study. A sufficient number of potential patients are screened to ensure enrollment of 60 eligible cases.
All study participants were evaluated prior to the study (First Level) and periodically throughout using the following standard efficacy tests;
NPI (Neuropsychiatric Inventory,
CGIC (Clinician's Global Impression of Change)
ADAS-cog (Alzheimer's Disease Assessment Scale—cognitive subscale)
MMSE (Mini-Mental State Exam)
CANTAB (Cambridge Neuropsychological Test Automated Battery—
ADCS-ADL (Activities of Daily Living)

[2] = In vivo studies: cholinergic side effects after i.p. administration; details: rodents
Description: This is a classical central (i.e., brain) cholinergic over-stimulation (overdrive) effect. Such a tremor persisted for approximately 1 hour.

[3] = tested on: βAPP levels in SK-N-SH cells; test: βAPP levels by Western blot in neuroblastoma cells; type: cell-based; details: 0.5 μM to 50 μM, various time intervals up to 16 hours
Description: (§1) The (+) enantiomer of formula I prepared in Example 2 was tested against its phenserine with respect to controlling β-APP levels in and the resulting toxic amyloid protein (Aβ protein) derived from the β-APP-protein by the procedure disclosed in the Shaw et al. Proc. Nat. Acad. Sci. USA (2001), 98 (13), 7605-7610. Pages […] except that the test given below included (+) enantiomer of phenserine as well as phenserine itself so that phenserine and its (+) enantiomer were tested side by side for their effect in reducing the β-APP and Aβ-proteins. The methodology of Shaw et al for carrying out these tests is summarized as follows:
(§2) Drug treatment: SK-N-SH neuroblastoma cells were cultured on 60 mm dishes at a concentration of 3×10^6 cells, and SH-SY-5Y neuroblastoma cells were plated in 100 mm dishes at a concentration of 3×10^5 cells. The cells were allowed to grow in complete media (10% FBS, 2 mM glutamine in DMEM) for 3 to 4 days until they reached 70% confluence. To start the experiment, spent media were removed and replaced with fresh media (DMEM+0.5% FBS) containing 0, 5 or 50 μM of either (−)- or (+)-phenserine, and cells were incubated at 37 C, 5% CO2 for the specific times indicated.
Lysate preparation: At each time point, the spent medium was collected and stored at −70 C for later analysis of secretory βAPP levels. Cell lysates were prepared as reported previously (Lahiri et al., 1997 and 1998). Protein levels of the supernatant were analyzed by the Bradford protein assay (BioRad, Mellville, N.Y.).
Western Blot: Fifteen μg of protein from each sample was laded onto a 10% NuPAGE Bis-Tris gel in 1× NuPAGE MOPS SDS running buffer (NOVEX, San Diego, Calif.) and the proteins separated at 200 V for 45 min. The gels then were transferred onto nitrocellulose at 25 V for 1.5 h. […] Equivalent loading of samples was determined by Ponceau S staining (Sigma, St. Louis, Mo.). Densimetric quantification of the chemiluminesence of blots was undertaken by using a […] and NIH-IMAGE (version 4.1).

[4] = tested on: Aβ protein levels in SK-N-SH cells; test: Total Aβ assay (ELISA) in neuroblastoma cell cultures; type: cell-based; details: especially after 10 hours
Description: as §1, §2
Total Aβ Assay: Total Aβ peptide levels in SH-SY-5Y and SK-N-SH cultured samples were assayed by a sensitive ELISA (Suzuki et al., 1994). For total Aβ measurements, the a sandwich immunoassay with rabbit polyclonal antibody to residues 1-40 residues of Aβ as a capture antibody for all species of Aβ peptide Aβ1-40 and Aβ1-42 and the monoclonal antibody to 17-25 residues of Aβ was used to detect Aβ peptide levels, and the values were expressed as the mean of six independent assays.

acetylcholinesterase [5] = target: T1, acetylcholinesterase (Homo sapiens, UniProt P22303); details: as stated in Shaw et al., PNAS 2001; read-out: concentration of compound required to inhibit 50% acetylcholinesterase activity; cited from earlier work
Target sequence in this assay (P22303 32-614, species assumed): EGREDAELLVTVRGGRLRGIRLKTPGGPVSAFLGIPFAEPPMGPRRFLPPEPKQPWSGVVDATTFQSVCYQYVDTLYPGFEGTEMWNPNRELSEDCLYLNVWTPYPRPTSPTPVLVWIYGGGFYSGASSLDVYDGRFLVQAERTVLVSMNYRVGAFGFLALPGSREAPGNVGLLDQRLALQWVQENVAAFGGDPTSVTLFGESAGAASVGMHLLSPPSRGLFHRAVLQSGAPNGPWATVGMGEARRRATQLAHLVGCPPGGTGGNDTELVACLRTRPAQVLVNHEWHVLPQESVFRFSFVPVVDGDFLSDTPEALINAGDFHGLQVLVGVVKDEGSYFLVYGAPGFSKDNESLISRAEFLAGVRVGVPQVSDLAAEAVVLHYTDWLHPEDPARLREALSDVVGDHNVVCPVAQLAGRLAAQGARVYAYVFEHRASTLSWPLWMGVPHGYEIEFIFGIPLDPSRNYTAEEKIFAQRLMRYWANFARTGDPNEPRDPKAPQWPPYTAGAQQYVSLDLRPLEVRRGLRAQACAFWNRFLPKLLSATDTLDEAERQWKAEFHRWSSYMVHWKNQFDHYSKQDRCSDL

acetylcholinesterase [6] = target: T1, acetylcholinesterase; details: compared with negative enantiomer phenserine; Pei, Greig et al. 1995; cited from earlier work
Target sequence in this assay (P22303 32-614): as the sequence (P22303 32-614, species assumed) above

CN1CC[C@]2(C)c3cc(OC(=O)Nc4ccccc4)ccc3N(C)[C@H]12.O=C(O)C(O)C(O)C(=O)O (single isomer, unassigned) [(+) phenserine tartrate, tartaric acid salt of the +enantiomer of N-phenyl carbanoyl eseroline]
level in the efficacy tests at end of twelve weeks versus First Level prior to treatment ([1]; patients with symptoms similar to Alzheimer's disease, oral capsules): maintain a level at least as great as the First Level | patients with an improvement over First Level at end of twelve-week period ([1]; treated group): about 30%

CN1CC[C@@]2(C)c3cc(OC(=O)Nc4ccccc4)ccc3N(C)C12 (single isomer, unassigned; (-)) [(−)-phenserine, (−) N-(−)-N phenyl canbamoyleseroline]
persistence of tremor ([2]; 5 mg/kg): approximately 1 hour | symptoms observed ([2]; 5 mg/kg (1 ml/kg in isotonic saline)): fine tremor | symptoms observed ([2]; 7.5 mg/kg): Tremor, together with symptoms of peripheral over-stimulation (specifically, lacrimation and salivation) | animals killed when moribund, of 5 treated animals ([2]; 20 mg/kg): 2 | symptoms observed ([2]; 20 mg/kg): incapacitated by severe tremor and peripheral side effects | βAPP levels compared to control ([3]; FIGS. 1 and 3): reduces secreted and cellular βAPP levels in a concentration dependent manner; also recorded: decreased the βAPP levels | levels of Aβ protein compared to control ([4]; FIGS. 2 and 3): reduced Aβ protein levels; also recorded: substantially reduced

CN1CC[C@]2(C)c3cc(OC(=O)Nc4ccccc4)ccc3N(C)C12 (single isomer, unassigned; (+)) [(+)-phenserine, (+) 9-N-phenylcarbinol esroline]
pIC50 (acetylcholinesterase [5]): < 4.60 | activity as an inhibitor of human acetylcholinesterase (acetylcholinesterase [6]): far less active | symptoms observed ([2]; 20 mg/kg): entirely without symptoms | βAPP levels compared to control ([3]; FIGS. 1 and 3): effective in reducing | βAPP levels compared to control ([3]; FIGS. 1 and 3, listed as positive isomer of phenserine): reduces the production | levels of Aβ protein compared to control ([4]; FIGS. 2 and 3): effective in reducing | levels of Aβ protein compared to control ([4]; FIGS. 2 and 3, listed as positive isomer of phenserine): reduces the production
